Key:
plasma FSH = assay: Example II: plasma FSH during 3-day letrozole regimen; assay type: in vivo, cattle; details: 3-day regimen
Protocol: (§1) Four days after follicular ablation, heifers were given 500 μg of cloprostenol (PGF, Estrumate, Schering-Plough Animal Health, Pointe-Claire, QC, Canada) intramuscularly (im) to induce regression of the CL and to synchronize ovulation. The experiment was performed in two replicates (n=20-27 per replicate) and each heifer was used only once. In replicate 1, heifers were assigned randomly at the time of ovulation (Day 0) to the following groups and given a 3-day regimen of letrozole from Days 1 to 3 (n=5), Days 3 to 5 (n=5), Days 5 to 7 (n=5), or no treatment (control group, n=5). In replicate 2, heifers were similarly assigned to groups and given letrozole from Days 1 to 3, (n=5), Days 3 to 5 (n=4), or Days 5 to 7 (n=4), but untreated control heifers were arranged in three sub-groups to serve as contemporaneous controls for each letrozole-group during intensive blood sampling periods (i.e., control Days 1 to 3, n=4; control Days 3 to 5, n=4; and control Days 5 to 7, n=5). For practical purposes, the total dose of letrozole (250 μg/kg) was calculated on the basis of an average weight of 350 kg for all heifers and administered intravenously in daily divided doses over 3 days (85 μg/kg per day). […]
Plasma FSH concentrations were determined in duplicate using a double-antibody radioimmunoassay using NIDDK-anti-oFSH-1 primary antibody and expressed as USDA bovine FSH-I1 units. […]

plasma progesterone [1] = assay: Example II: plasma progesterone, 3-day letrozole regimen; assay type: in vivo, cattle; details: 3-day regimen, groups combined; numerically higher
Protocol: as §1
Plasma progesterone concentrations were determined in duplicate using a commercial solid-phase kit (Coat-A-Count; Diagnostic Products Corporation, Los Angeles, Calif., USA). […]

plasma progesterone [2] = assay: Example III: plasma progesterone after letrozole IM; assay type: in vivo, cattle; details: 1 mg/kg IM; P<0.06
Protocol: Ovarian cyclicity in heifers was synchronized using transvaginal ultrasound-guided follicular ablation followed by a double dose of PGF 4 days after ablation. The ovaries were examined daily by transrectal ultrasonography to detect ovulation. Three days after ovulation, heifers were assigned randomly to four treatment groups and given letrozole at a dose of 1 mg/kg intravenously (in benzyl alcohol, n=10) or intramuscularly (in benzyl alcohol plus canola oil 1:1 v/v, n=10), or given a placebo intravenously (benzyl alcohol, n=5) or intramuscularly (benzyl alcohol plus canola oil 1:1 v/v, n=5). Ovarian structures were monitored by ultrasonography and blood samples were collected by jugular venipuncture twice daily from pre-treatment to post-treatment ovulations. Comparisons among groups were made by one-way ANOVA for single-point measurements and by ANOVA for repeated measures for time-series data.
Blood samples collected daily from treatment to post-treatment ovulation.
Endpoints are: Follicular diameter profiles; CL diameter profile; Circulating progesterone concentration; Circulating FSH and LH profiles; Letrozole profile and bioavailability; Circulating estradiol concentration Follicular fluid estradiol concentration).

heifers = assay: Example IV: intravaginal device containing 1 g letrozole in heifers, ovulation and ovarian structures; assay type: in vivo, cattle
Protocol: To test the hypothesis that letrozole treatment during the preovulatory stage, initiated prior to onset of follicular selection and prolonged for a 7-day period will be able to induce the development of more than one follicle to a preovulatory size and to delay the occurrence of ovulation. To develop a practical route of administration of letrozole in cattle.
Five to eight days after PGF-induced ovulation, FA was performed followed by a double dose of PGF 60 and 72 hr later. Heifers were randomly divided into two groups and received from Day 1 (Day 0=wave emergence) until Day 7 or until ovulation is detected: • intravaginal device containing 1 g of letrozole (n=15) • Intravaginal blank device (letrozole free, n=15)
Transrectal ultrasound examination and blood sample collection were performed daily from day of ablation until Day 12 post-ovulation. blood samples were collected frequently at the time of catheter placement, at 0, 10, 20, 30 min, 1, 1.5, 2, 3, 4, 6, 8, 12 and 24 hours post-treatment

women = assay: Letrozole at expected time of ovulation in women; assay type: in vivo, human; details: women treated at 18 mm follicle diameter
circulating estradiol = details: boars [56]; cited from earlier work

## N#Cc1ccc(C(c2ccc(C#N)cc2)n2cncn2)cc1 [Letrozole, letrozole]
Plasma FSH
  plasma FSH levels compared with respective controls: No differences
Plasma progesterone [1]
  differences in plasma progesterone concentrations vs control: not significant
Plasma progesterone [2]
  plasma progesterone concentrations vs IM controls: tended to be higher
heifers
  size of the ovulated dominant follicle (DF): larger DF
heifers; Day 1 to Day 7 of pre-ovulatory wave
  delay of ovulation: 24 h
women
  ovulation earlier than controls: 24 h
Circulating estradiol
  reduction in circulating estradiol concentrations: 88%
